Experimental data: US11109593B2, “Isoxazolin-5-one derivative and herbicide containing same as active ingredient” (HOKKO CHEMICAL INDUSTRY CO., LTD., priority 2017, dated 2021)

Assays:
Assay type in all cases: in vivo
[1] = tested on: broad leaf weeds (Lindernia pyxidaria and Monochoria vaginalis); experiment: Test Example 2: herbicidal effect test by treatment during growing period in paddy rice cultivation (seven days after seeding); details: 120 g/10a active ingredient, assessed 14 days after treatment, dry weight vs untreated area
Method: (§1) This test was conducted in a double system per one agent solution concentration area, and the herbicidal rates (%) were determined by the following equation (Math. 1) on 14 days after the treatment with the agents. Herbicidal Rate (%)={1-(Average Dry Weight (g) of Plant of Treated Area)/(Average Dry Weight (g) of Plant of Untreated Area)}×100 [Math. 1]
(§2) Herbicidal Effect Test by Treatment During Growing Period in Paddy Rice Cultivation
(§3) Wagner pots with an area of 1/10000 ares were filled with a paddy soil, and after adding water, a compound fertilizer (N:P:K=17:17:17) was mixed, followed by soil puddling. Then, Echinochloa crus-galli, broad leaf weeds (Lindernia pyxidaria and Monochoria vaginalis) and Scirpus juncoides, 30 seeds each, were sown in a depth of 0 to 1 cm. Water was poured immediately after seeding, and the water depth was kept at about 3 cm. The subsequent management was conducted in a glass greenhouse. Emulsions prepared using the compounds in Table 4 below according to Formulation Example 5 were diluted with water seven days after seeding, and a certain amount of the water-diluted agent solutions were dropped. The converted amount of the applied active ingredient corresponded to 120 g per 10 ares. The test was conducted in a double system per one agent solution concentration area, and the herbicidal rates (%) were determined by the equation (Math. 1) on 14 days after the treatment with the agents. […] The compound numbers in Table 4 are the same as those in Table 1 and Table 2 above.

Scirpus juncoides [2] = experiment: as above; details: 120 g/10a active ingredient, assessed 14 days after treatment, dry weight vs untreated area
Method: as §1, §2, §3

Echinochloa crus-galli [3] = experiment: as above; details: 120 g/10a active ingredient, assessed 14 days after treatment, dry weight vs untreated area
Method: as §1, §2, §3

[4] = tested on: broad leaf weeds (Lindernia pyxidaria and Monochoria vaginalis); experiment: Test Example 1: herbicidal effect test by treatment of rice paddy soil (immediately after seeding); details: 120 g/10a active ingredient, dry weight vs untreated area, 14 days after treatment
Method: (§4) Herbicidal Effect Test by Treatment of Rice Paddy Soil
(§5) Wagner pots with an area of 1/10000 ares were filled with a paddy soil, and after adding water, a compound fertilizer (N:P:K=17:17:17) was added, followed by soil puddling. Then, Echinochloa crus-galli, broad leaf weeds (Lindernia pyxidaria and Monochoria vaginalis) and Scirpus juncoides, 30 seeds each, were sown in a depth of 0 to 1 cm. Water was poured immediately after seeding, and the water depth was kept at about 3 cm. The subsequent management was conducted in a glass greenhouse. Immediately after that, emulsions prepared using the compounds in Table 3 below according to Formulation Example 5 were diluted with water, and a certain amount of the water-diluted agent solutions were dropped. The converted amount of the applied active ingredient corresponded to 120 g per 10 ares.
as §1
(§6) The compound numbers in Table 3 are the same as those in Table 1 and Table 2 above.

Scirpus juncoides [5] = experiment: as above; details: 120 g/10a active ingredient, dry weight vs untreated area, 14 days after treatment
Method: as §4, §5, §1, §6

Echinochloa crus-galli [6] = experiment: as above; details: 120 g/10a active ingredient, dry weight vs untreated area, 14 days after treatment
Method: as §4, §5, §1, §6

Structure (SMILES)	Herbicidal rate (%) Lindernia pyxidaria [1] [%]	Herbicidal rate (%) Monochoria vaginalis [1] [%]	Herbicidal rate (%) Scirpus juncoides (Scirpus juncoides [2]) [%]	Herbicidal rate (%) Echinochloa crus-galli (Echinochloa crus-galli [3]) [%]	Herbicidal rate (%) Lindernia pyxidaria [4] [%]	Herbicidal rate (%) Monochoria vaginalis [4] [%]	Herbicidal rate (%) Scirpus juncoides (Scirpus juncoides [5]) [%]	Herbicidal rate (%) Echinochloa crus-galli (Echinochloa crus-galli [6]) [%]
Cc1c(Cc2ccccc2NS(=O)(=O)C(F)(F)F)c(=O)on1C(C)c1ccccc1Cl (centres unmarked) [Compound 1-205]	90	90	80	50	100	100	90	100
Cc1c(Cc2ccccc2NS(=O)(=O)C(F)(F)F)c(=O)on1C(C)c1cccc(Cl)c1 (centres unmarked) [Compound 1-206]	80	90	80	60	100	100	90	90
Cc1c(Cc2ccccc2NS(=O)(=O)C(F)(F)F)c(=O)on1C(C)c1ccc(Cl)cc1 (centres unmarked) [Compound 1-207]	60	70	70	60	100	100	90	100
Cc1c(Cc2ccccc2NS(=O)(=O)C(F)(F)F)c(=O)on1C(C)c1ccc(OC(F)(F)F)cc1 (centres unmarked) [Compound 1-209]	60	80	90	40	60	60	70	90
Cc1c(Cc2ccccc2NS(=O)(=O)C(F)(F)F)c(=O)on1CC(F)(F)c1ccccc1 [Compound 1-220]	100	90	90	40	100	100	90	90
Cc1c(Cc2ccccc2NS(=O)(=O)C(F)(F)F)c(=O)on1Cc1cccs1 [Compound 1-231]	40	40	60	60	80	90	80	90
Cc1c(Cc2ccccc2NS(=O)(=O)C(F)(F)F)c(=O)on1Cc1ccsc1 [Compound 1-232]	40	40	60	70	80	90	90	90
Cc1c(Cc2ccccc2NS(=O)(=O)C(F)(F)F)c(=O)on1C(C)c1ccsc1 (centres unmarked) [Compound 1-235]	40	60	60	50	60	80	80	90
Cc1c(Cc2ccccc2NS(=O)(=O)C(F)(F)F)c(=O)on1CCOCc1ccccc1 [Compound 1-238]	40	80	80	80	80	80	80	100
CCN(c1ccccc1Cc1c(C)n(CC(C)C)oc1=O)S(=O)(=O)C(F)(F)F [Compound 1-263]	40	60	90	90	80	50	60	50
CCC(CC)Cn1oc(=O)c(Cc2ccccc2N(CC)S(=O)(=O)C(F)(F)F)c1C [Compound 1-264]	50	80	90	80	80	90	100	90
CCOC(=O)N(c1ccccc1Cc1c(C)n(CC(C)C)oc1=O)S(=O)(=O)C(F)(F)F [Compound 1-608]	60	80	80	90	70	80	90	70
CCCOC(=O)N(c1ccccc1Cc1c(C)n(C(C)COC)oc1=O)S(=O)(=O)C(F)(F)F (centres unmarked) [Compound 1-634]	90	90	90	90	90	90	90	90
